Data from article PMC8786148, “The effects of magainin 2-derived and rationally designed antimicrobial peptides on Mycoplasma pneumoniae” (PLoS ONE, 2022).

What was measured:
[1] = test system: M. pneumoniae strains FH, M52, Mac, Bru, and M129-B7; assay: Propidium iodide (PI) uptake assay, membrane disruption; type: cell-based, Mycoplasma pneumoniae; settings: five strains; 10 μmol/L AMP; PI 5 μg/mL in PBS; read every 2 min up to 20 min; triplicate
Description: We performed the PI uptake assays based on the previously described method with modification for M. pneumoniae. M. pneumoniae strains FH, M52, Mac, Bru, and M129-B7 were cultured as described above. Briefly, the 90 mL culture was done in PPLO-based medium for 6 days to observe the medium color change from red to yellow. The mycoplasma in the culture medium was centrifuged at 11,740g for 30 min at 4°C, and the precipitation was suspended in 20 mL phosphate buffered saline (PBS) by passing through a 60 mm-length 25-gauge needle (Top Corporation, Tokyo, Japan) three times. The suspension was centrifuged again at 11,740g for 30 min at 4°C, and 2.25 mL PBS was added to the precipitation. The 2× mycoplasma suspension was prepared by passing through a 60 mm-length 25-gauge needle five times. When using heat-killed M. pneumoniae (HKMp), the 2× suspension was heated at 95°C for 10 min. The 2× PI assay reaction mix based on PBS containing 20 μmol/L of an antimicrobial peptide or saline, and 10 μg/mL PI (Dojindo, Tokyo, Japan). Each assay was performed with a 96-well black flat-bottomed plate (PerkinElmer, Waltham, MA, USA) using a final cell volume of 100 μL prepared by mixing 2× mycoplasma suspension and 2× PI assay reaction mix at 1:1 in volume ratio. The intercalation fluorescence of PI was measured by using an Infinite 200 Pro F Plex microplate reader (Tecan, Zürich, Switzerland) every 2 min, with an excitation filter at 535 nm (half width: 25 nm) and an emission filter at 620 nm (half width: 20 nm). The averages and standard deviations of the fluorescent intensities was calculated, and normalised by an average fluorescence between 10 and 20 min of HKMp as 100% relative fluorescence, and by a minimum average fluorescence between 0 and 20 min of whole data as 0% relative fluorescence.

[2] = test system: Histophilus somni; design: method as in PMID 29771981; settings: bovine pathogen; cited from earlier work
[3] = test system: Pasteurella multocida; design: method as in PMID 29771981; settings: bovine pathogen; cited from earlier work
[4] = test system: Mannheimia haemolytica; design: method as in PMID 29771981; settings: bovine pathogen; cited from earlier work
[5] = test system: M. bovis; settings: cited from earlier work
[6] = previously reported; cited from earlier work
[7] = test system: Mycoplasma pneumoniae FH; assay: Killing assay, strain FH; settings: 30 μmol/L AMP, 3 days
[8] = test system: Mycoplasma pneumoniae FH; assay: Colorimetric assay (absorbance at 560 nm), strain FH; settings: initial 10^5 CFU/mL, 0% CO2, up to 30 μmol/L
[9] = test system: Mycoplasma pneumoniae FH; assay: Biofilm assay (crystal violet, absorbance at 550 nm), strain FH; settings: initial 10^5 CFU/mL, 0% CO2, 6-8 days at 37°C, p < 0.005, Shirley-Williams test

H-TVIEVASKMCSKMRLLKGLCKSITKRFLRR-NH2 [NK2A, reference compound]
PI fluorescence compared with live Mp without peptide [1]: the PI fluorescence arose
Effective concentration against Histophilus somni [2]: 5 µmol/L
Effective concentration against Pasteurella multocida [3]: 5 µmol/L
Effective concentration against Mannheimia haemolytica [4]: 5 µmol/L
Effective concentration against M. bovis [5]: 20 µmol/L
Haemolysis (concentration with haemolytic effect) [6]: 5 µmol/L
Killing assay result compared with saline ([7]; Welch's t test, p < 0.005): limited influence on the growth
Cell numbers (CFU/mL) after treatment with antimicrobial peptides, killing assay ([7]; initial 10^6 CFU/mL, triplicate, mean, saline 3.59×10^6): 2.87×10^6 CFU/mL
Effect in the colorimetric assay [8]: no difference
Concentration with statistically significant effect in the biofilm assay [9]: 30 µmol/L
